“And” between values parts separate entries of the source, which are not always exact repeats. Identical values can stand only once.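 Method: 48-hour compound exposure of cells in 96-well plates, five concentrations, linear interpolation of endpoints. GI50 is the concentration that inhibits growth by half. TGI: concentration producing complete growth inhibition.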
What was measured:
Test in all cases: NCI tumour cell line growth inhibition, 48 h
HL-60(TB) leukemia = tested on: HL-60(TB) leukemia
HOP-92 NSCLC = tested on: HOP-92 NSCLC
HS 578T breast = tested on: HS 578T breast
NCI-H226 lung = tested on: NCI-H226 lung
NCI/ADR-RES ovarian = tested on: NCI/ADR-RES ovarian
OVCAR-4 ovarian = tested on: OVCAR-4 ovarian
SK-MEL-2 melanoma = tested on: SK-MEL-2 melanoma
COLO 205 colon = tested on: COLO 205 colon

Row | Compound | GI50 (HL-60(TB) leukemia) | TGI (HL-60(TB) leukemia) | GI50 (HOP-92 NSCLC) | TGI (HOP-92 NSCLC) | GI50 (HS 578T breast) | TGI (HS 578T breast) | GI50 (NCI-H226 lung) | TGI (NCI-H226 lung) | GI50 (NCI/ADR-RES ovarian) | TGI (NCI/ADR-RES ovarian) | GI50 (OVCAR-4 ovarian) | TGI (OVCAR-4 ovarian) | GI50 (SK-MEL-2 melanoma) | TGI (SK-MEL-2 melanoma) | GI50 (COLO 205 colon) | TGI (COLO 205 colon)
1 | O=C(O)CC(S)C(=O)O.[Li+].[Sb] (stereo not given) | > 100 µM | > 100 µM | > 100 µM | > 100 µM | > 100 µM | > 100 µM | > 100 µM | > 100 µM | > 100 µM | > 100 µM | > 100 µM | > 100 µM | 40.5 µM | > 100 µM | – | –
2 | COc1ccc2[nH]cc(Cc3c[nH]c4ccc(OC)cc34)c2c1 | 44.2 µM | > 100 µM | – | – | 15.6 µM | 49.6 µM | 18.5 µM | 48.9 µM | 20.4 µM | 42.1 µM | 17.6 µM | 40.3 µM | 17.4 µM | 43.3 µM | 18.6 µM | 35.3 µM
3 | CN(CCCCCCCCNc1ccnc2ccccc12)Cc1ccc(-c2ccc(-c3ccc(C#N)cc3)s2)cc1 | 1.15 µM | 2.93 µM | 0.337 µM | 2.53 µM | 1.75 µM | 3.86 µM | 1.17 µM | 3.17 µM | 1.2 µM | 3.23 µM | 0.139 µM | 1.99 µM | 1.85 µM | 3.83 µM | 0.63 µM | 2.17 µM
4 | COC(=O)c1cc2c([nH]c3ccccc32)c(-c2nc3ccccc3cc2CO)n1 | 24.9 µM | 50.2 µM | 53.5 µM | > 100 µM | > 100 µM | > 100 µM | > 100 µM | > 100 µM | > 100 µM | > 100 µM | > 100 µM | > 100 µM | > 100 µM | > 100 µM | > 100 µM | > 100 µM
5 | COc1cc2c(cc1OC)-c1c(c3ccc([N+](=O)[O-])cc3c(=O)n1CCCN=[N+]=[N-])C2=O | 73 µM | > 100 µM | – | – | > 100 µM | > 100 µM | > 100 µM | > 100 µM | 31.7 µM | > 100 µM | > 100 µM | > 100 µM | > 100 µM | > 100 µM | > 100 µM | > 100 µM
6 | CCOP(=O)(OCC)C(NC(c1ccccc1)c1ccccc1)c1ccsc1 (stereo not given) | 23 µM | 56.9 µM | 14.3 µM | 30.8 µM | 29.7 µM | 66.3 µM | 13.7 µM | 28.8 µM | 14.4 µM | 29.7 µM | – | – | 43.4 µM | > 100 µM | – | –
7 | O=C(CS(=O)c1nc2ccccc2nc1-c1ccccc1)Nc1ccc(Cl)cc1 (stereo not given) | – | – | 12.3 µM | 49.2 µM | – | 6.88 µM | 23.1 µM | 47.8 µM | 26.4 µM | 81.2 µM | 61.2 µM | > 100 µM | 27.4 µM | 65.5 µM | 23.4 µM | 58.6 µM
8 | COc1ccccc1-c1ccc2c(N)c(C(=O)c3ccc4c(c3)OCO4)sc2n1 | 4.83 µM | > 100 µM | 2.99 µM | 13 µM | 7.97 µM | 47.1 µM | 7.35 µM | 31.8 µM | 4.13 µM | 16.7 µM | – | – | 3.38 µM | 10.9 µM | 10 µM | 31 µM
9 | O=C1C(c2ccccc2)=[N+]([O-])c2cc([N+](=O)[O-])ccc21 | – | 30.1 µM | – | 64.5 µM | – | – | – | > 100 µM | – | – | – | – | – | > 100 µM | – | 36.9 µM
10 | O=C(CO)CC(=O)C(=O)Nc1cccc(C(F)(F)F)c1 | – | > 100 µM | – | > 100 µM | – | – | – | > 100 µM | – | – | – | > 100 µM | – | > 100 µM | – | > 100 µM
11 | Cc1cnc(-c2ccc(-c3ccc(NC(=O)Nc4cccc(C(F)(F)F)c4)cc3F)c3c2C(=O)NC3)[nH]1 | 43.4 µM | > 100 µM | 0.438 µM | 28.6 µM | 2.46 µM | 35.4 µM | 0.933 µM | > 42.7 µM | 31.4 µM | > 100 µM | 8.96 µM | 23.8 µM | 14.9 µM | 36.8 µM | 0.0469 µM | 20.2 µM
12 | CCN(CC)CCOc1ccc(NC(=O)C(C(C)C)N2C(=O)/C(=C/c3ccc(Br)cc3)SC2=S)cc1 (stereo not given) | 4.96 µM | 20.8 µM | 2.53 µM | 13.5 µM | 12.1 µM | 35.1 µM | 16.2 µM | 37.3 µM | 3.93 µM | 14.3 µM | 2.25 µM | 5.67 µM | 14.9 µM | 30.9 µM | 2.64 µM | 6.88 µM
13 | Oc1ccccc1/C=N\Nc1ccccc1 | 1.31 µM | 4.8 µM | 10.7 µM | 42.8 µM | – | – | 3.13 µM | 31.4 µM | 3.2 µM | 88.5 µM | 24.8 µM | > 100 µM | 13.2 µM | > 100 µM | 5.92 µM | 21.3 µM
14 | Cc1cc2oc(=O)cc(OC/C=C3/CCC(=O)O3)c2cc1C | – | – | 1.65 µM | 10.6 µM | 4.76 µM | 43.7 µM | 10.8 µM | 51.1 µM | 5.09 µM | 23.2 µM | 2.56 µM | 13.7 µM | 3.41 µM | 16.1 µM | 2.19 µM | 10.4 µM
15 | CN(C)c1ccc2cc3c(cc2c1)Oc1ccccc1N3.[Cl][Zn][Cl] | 2.61 µM | 7.3 µM | 2.59 µM | 8.33 µM | 24.7 µM | > 100 µM | 1.73 µM | 4.07 µM | 16.8 µM | 83.3 µM | 2.75 µM | 13.6 µM | 9.65 µM | 31.3 µM | – | –
16 | CCOC1Oc2ccccc2C(=O)/C1=C\Nc1ccc(C(=O)O)c(O)c1 (stereo not given) | 32.7 µM | > 100 µM | 19.6 µM | 60.6 µM | 35 µM | 90 µM | 28.1 µM | 80.1 µM | 20.5 µM | 62 µM | – | – | 46.7 µM | > 100 µM | 23.9 µM | 56.5 µM
17 | NS(=O)(=O)c1ccc(-n2nc(-c3ccccc3)cc2-c2cc(O)ccc2O)cc1 | – | – | > 100 µM | > 100 µM | > 100 µM | > 100 µM | > 100 µM | > 100 µM | > 100 µM | > 100 µM | – | – | > 100 µM | > 100 µM | > 100 µM | > 100 µM
18 | CCOC(=O)Nc1cc2c(c(N)n1)N=C(c1ccccc1)CN2 | – | – | < 0.0001 µM | 34.8 µM | – | – | 0.000221 µM | – | – | – | – | > 100 µM | – | – | < 0.0001 µM | 0.255 µM
19 | O=C1NC(c2cccc3ccccc23)Nc2ccccc21 (stereo not given) | 0.00675 µM | 0.0391 µM and 0.0342 µM | – | – | – | 92.2 µM | 0.0238 µM | – | – | 0.0707 µM and 0.0715 µM | 0.166 µM | > 100 µM | – | 7.5 µM and > 20.2 µM | 0.027 µM | 0.0954 µM
20 | CC(C)c1ccc(C(O)(C(=O)O)c2ccc(C(C)C)cc2)cc1 | – | 99.4 µM | – | > 100 µM | – | > 100 µM | – | 54.6 µM | – | > 100 µM | – | > 100 µM | – | – | – | > 100 µM
21 | Cc1ccc2c(c1)C(=O)/C(=C/c1cccc(OCC(=O)c3ccc(Cl)cc3)c1)CS2 | 2.95 µM | 13.4 µM | – | – | 1.54 µM | 4.42 µM | 14.9 µM | 31.4 µM | 2.68 µM | 9.02 µM | 4.07 µM | 18.5 µM | 8.03 µM | 22.3 µM | 9.31 µM | 35.8 µM
22 | COc1ccc2[nH]cc(C3(c4c[nH]c5ccc(OC)cc45)C(=O)Nc4ccc(Cl)cc43)c2c1 | – | – | 2.2 µM | 10.3 µM | 5.38 µM | > 100 µM | 3.38 µM | 30 µM | 9.98 µM | > 100 µM | 3.67 µM | 30.5 µM | 2.9 µM | 6.67 µM | 1.88 µM | 3.53 µM
23 | CC(=O)OC(C)(C)C[N+](=O)[O-] | – | > 100 µM | – | > 100 µM | – | – | – | > 100 µM | – | – | – | > 100 µM | – | > 100 µM | – | > 100 µM
24 | COc1ccc(C(=O)/C=C/c2c(C(F)(F)F)nc3ccccn23)cc1OC | 0.758 µM | 2.64 µM | – | – | 2.31 µM | > 100 µM | 3.97 µM | > 100 µM | 0.877 µM | 6.25 µM | 3.28 µM | > 48.6 µM | 1.72 µM | 5.09 µM | 1.86 µM | 3.95 µM
25 | CC1OC(OC2C(O)C(OCCc3ccc(O)c(O)c3)OC(CO)C2OC(=O)/C=C/c2ccc(O)c(O)c2)C(O)C(O)C1O (stereo not given) | 14.9 µM | > 100 µM | > 100 µM | > 100 µM | > 100 µM | > 100 µM | – | – | > 100 µM | > 100 µM | > 100 µM | > 100 µM | > 100 µM | > 100 µM | > 100 µM | > 100 µM
26 | CCN(CC)CCNc1ccc(N=Nc2cnc3ccccc3c2)c2ccccc12 | 1.34 µM | 2.92 µM | – | – | 2.62 µM | 7.3 µM | 1.71 µM | 3.66 µM | 2.29 µM | 5.15 µM | 1.85 µM | 3.88 µM | 2.34 µM | 4.3 µM | 1.61 µM | 2.98 µM
27 | Cc1nccc2c3ccc(OCc4cn(-c5ccc(Br)cc5)nn4)cc3n(CCCc3ccccc3)c12 | 6.53 µM | > 100 µM | 47.4 µM | > 100 µM | 1.31 µM | 4.56 µM | 1.75 µM | 13.6 µM | 1.79 µM | 4.61 µM | – | – | > 100 µM | > 100 µM | – | –
